From patent US10596168B2, “Antagonists of the thyroid-stimulating hormone receptor (TSHR)” (Forschungsverbund Berlin e.V., priority 2016, dated 2020)
“And” between values parts separate entries of the source, which are not always exact repeats. Equal entries are not always repeated.

What was measured:
Type in all cases: cell-based
TSHR [1] = biological target: T1, TSHR (Homo sapiens, UniProt P16473); test: cAMP accumulation radioimmunoassay (RIA), inhibition of TSH-induced cAMP production in HEK-293 cells stably expressing TSHR; design: antagonistic activity (% inhibition): concentration or dose not given beside the values; details: for Antagonistic effect (cAMP inhibition) on TSHR: 50 μM together with the respective agonist, RIA, HEK-293; for Mode of antagonism vs. TSH (Schild analysis): bTSH dose response with increasing antagonist concentrations, wt TSHR; for antagonistic activity (% inhibition): inhibiting cAMP stimulation by TSH, radioimmunoassay; for IC50: secondary screen (RIA), dose-dependent inhibition of cAMP production caused by TSH (EC80 value), HEK-293-TSHR
T1 construct: expressed in transfected cells
T1 sequence (P16473 21-764): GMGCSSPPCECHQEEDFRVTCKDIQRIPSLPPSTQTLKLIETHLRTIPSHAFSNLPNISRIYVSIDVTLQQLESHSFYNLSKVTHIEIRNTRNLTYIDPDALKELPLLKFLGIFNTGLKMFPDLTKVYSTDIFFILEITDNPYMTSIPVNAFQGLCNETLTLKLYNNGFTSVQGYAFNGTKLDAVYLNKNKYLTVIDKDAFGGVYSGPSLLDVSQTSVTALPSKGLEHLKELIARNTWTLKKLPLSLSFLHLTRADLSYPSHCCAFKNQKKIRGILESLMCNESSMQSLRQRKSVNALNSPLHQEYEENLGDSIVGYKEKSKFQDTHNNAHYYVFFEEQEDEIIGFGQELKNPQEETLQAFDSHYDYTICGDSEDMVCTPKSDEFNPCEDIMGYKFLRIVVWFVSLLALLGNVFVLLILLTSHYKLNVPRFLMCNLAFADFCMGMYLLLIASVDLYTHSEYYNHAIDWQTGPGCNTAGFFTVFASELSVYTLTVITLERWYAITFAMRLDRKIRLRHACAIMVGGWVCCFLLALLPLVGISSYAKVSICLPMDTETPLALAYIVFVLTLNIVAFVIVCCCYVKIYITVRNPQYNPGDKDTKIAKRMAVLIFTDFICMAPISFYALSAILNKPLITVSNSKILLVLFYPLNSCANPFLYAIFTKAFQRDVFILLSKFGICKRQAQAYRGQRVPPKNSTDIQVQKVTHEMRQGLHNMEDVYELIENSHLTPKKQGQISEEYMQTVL
Procedure: (§1) HEK-293 cells stably expressing TSHR, FSHR, LHGCR or CRF1R were cultured for 48 h and stimulated for 1 h at 37° C. with stimulation buffer (DMEM supplemented with 10 mM HEPES, 0.5% BSA, 0.25 mM 3-isobutyl-1-methylxanthine) containing the ligands as indicated. After stimulation medium was aspirated and reactions were stopped by lysis of the cells with 0.1% trifluoroacetic acid, 0.005% Triton X-100 for 30 min at 4° C. Supernatants were collected and heated at 95° C. for 10 min, dried in a rotation vacuum concentrator (Alpha-RCV, Christ) and finally stored at −20° C. until use. After reconstitution and acetylation of the samples (Jäschke et al. 2006), the cAMP content was determined using cAMP-^125I-tyrosyl methyl ester (10,000 cpm, IBL) and polyclonal rabbit anti cAMP antibodies. The radioactivity of the precipitate was determined in a γ-counter.
For the Secondary Screening cAMP accumulation was measured by radioimmunoassay (RIA) in HEK-293-TSHR cells as described before.
For the secondary screening we used a very sensitive in vitro technique, the radioimmunoassay. This assay was established and performed in HEK-293 cell line stably expressing TSHR.
Therefore RIA was used to measure the cAMP accumulation upon stimulation with TSH (EC80 value) and confirmed the desired effect for S4 and S9 with a clear decrease of cAMP production.

[2] = tested on: Hek293 cell line stably expressing TSHR; test: Toxicity test, alamar blue cell vitality; details: 10 μM-100 μM
Procedure: The vitality of the cells was measured by the alamar blue test using Hek293 cell line stably expressing TSHR. Untreated cells and DMSO-treated cells (0.2% DMSO) were used as control.
Therefore, we conclude that substance S37 is not toxic for the concentration range evaluated by this assay.

wt TSHR = biological target: T2, wt TSHR (Homo sapiens, UniProt P16473); test: cAMP stimulation by agonist compound C2 at wildtype TSHR with increasing antagonist concentrations; details: C2 dose response with increasing antagonist concentrations
T2 construct: expressed in transfected cells
T2 sequence (P16473 21-764): as above
Procedure: as §1
Moreover, a Schild plot analysis provided first interesting hints that S37 might compete with the binding site of TSH, since increasing concentrations of added S37 led to a right shift of the TSH dose response curve (FIG. 5A) and to a linear Schild plot (FIG. 5B). S37 seems not to compete with the transmembrane binding site of the previous reported agonist compound 2 (Neumann et al. 2009), since increasing concentrations of added S37 led to diminished maximal values of the dose response curve for compound 2 by unchanged EC50 value (FIG. 5C).

Δ1-408-TSHR = biological target: T3, Δ1-408-TSHR (Homo sapiens, UniProt P16473); test: cAMP radioimmunoassay at ectodomain-truncated TSHR construct stimulated by compound 2; details: Δ1-408-TSHR lacking the ectodomain
T3 construct: This short construct (Δ1-408-TSHR.GFP) only consists of the transmembrane region; expressed in transfected cells
T3 sequence (P16473 409-764, stated change not applied): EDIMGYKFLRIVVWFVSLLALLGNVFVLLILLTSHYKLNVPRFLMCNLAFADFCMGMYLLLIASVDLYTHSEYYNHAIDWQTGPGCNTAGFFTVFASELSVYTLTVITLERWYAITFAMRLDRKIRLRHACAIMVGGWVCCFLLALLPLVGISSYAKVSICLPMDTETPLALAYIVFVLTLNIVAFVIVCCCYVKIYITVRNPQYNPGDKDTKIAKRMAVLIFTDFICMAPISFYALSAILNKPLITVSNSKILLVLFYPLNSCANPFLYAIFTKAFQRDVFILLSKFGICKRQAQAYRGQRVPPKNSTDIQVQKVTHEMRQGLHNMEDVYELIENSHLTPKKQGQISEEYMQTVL
Excerpt: Ectodomain-truncated TSHR construct (Δ1-408-TSHR.GFP) was generated using quick change site-directed mutagenesis and restriction digestion to excise the desired fragment of the TSHR sequence. The DNA sequence encoding the truncated TSHR mutant was inserted into the GFP-N1 vector. The construct was fused C-terminally with GFP and N-terminally with a FLAG tag. The FLAG tag was inserted by overlap-extension PCR. A HEK-293 cell line stably expressing this construct was generated. Shortly, cells were transfected with Polyethylenimine and plasmid DNA in a 2:1 ratio in serum free medium (DMEM). Cells were selected with medium containing 400 μg/ml G418 for several weeks and then a polyclonal population was selected for GFP fluorescence in a cell sorting device (BD FACSAria II flow cytometer). Cell surface expression was confirmed by confocal laser-scanning microscopy (GFP fluorescence) and flow cytometry using anti-FLAG M2 (Sigma).
HEK-293 cells stably expressing TSHR, FSHR, LHGCR or CRF1R were cultured for 48 h and stimulated for 1 h at 37° C. with stimulation buffer (DMEM supplemented with 10 mM HEPES, 0.5% BSA, 0.25 mM 3-isobutyl-1-methylxanthine) containing the ligands as indicated. […] After reconstitution and acetylation of the samples (Jäschke et al. 2006), the cAMP content was determined using cAMP-^125I-tyrosyl methyl ester (10,000 cpm, IBL) and polyclonal rabbit anti cAMP antibodies. […]

FSHR = biological target: T4, FSHR (Homo sapiens, UniProt P23945); test: Selectivity test: cAMP RIA in HEK-293 cells stably expressing FSHR; details: 50 μM together with the respective agonist
T4 construct: expressed in transfected cells
T4 sequence (P23945 18-695): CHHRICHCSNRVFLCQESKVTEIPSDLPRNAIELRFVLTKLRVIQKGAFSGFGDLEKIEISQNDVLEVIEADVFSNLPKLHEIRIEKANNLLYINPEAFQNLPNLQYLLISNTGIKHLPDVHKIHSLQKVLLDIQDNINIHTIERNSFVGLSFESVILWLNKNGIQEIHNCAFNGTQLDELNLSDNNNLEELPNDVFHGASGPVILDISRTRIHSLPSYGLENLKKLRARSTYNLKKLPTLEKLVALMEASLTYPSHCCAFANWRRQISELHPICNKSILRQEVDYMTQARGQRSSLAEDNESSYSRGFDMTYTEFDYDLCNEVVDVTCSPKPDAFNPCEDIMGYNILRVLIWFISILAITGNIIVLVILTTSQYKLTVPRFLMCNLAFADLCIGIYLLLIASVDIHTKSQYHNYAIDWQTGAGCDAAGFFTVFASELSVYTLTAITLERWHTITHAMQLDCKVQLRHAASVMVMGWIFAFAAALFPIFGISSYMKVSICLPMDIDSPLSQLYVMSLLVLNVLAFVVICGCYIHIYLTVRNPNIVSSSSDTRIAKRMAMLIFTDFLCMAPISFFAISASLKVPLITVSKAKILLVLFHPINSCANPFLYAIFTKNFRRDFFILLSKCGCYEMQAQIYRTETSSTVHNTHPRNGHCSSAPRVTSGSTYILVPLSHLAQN
Procedure: as §1
(§2) The antagonistic activity of compounds S4, S9, S37 and as reference compound, the micromolar inverse agonist 2-7 (Neumann et al. 2010) were tested on homologous members of the glycoprotein hormone receptor family, FSHR and LHCGR. […] All receptors were stably expressed in HEK-293 cells and the impact of each substance was measured upon administration of 50 μM together with the respective agonist. cAMP accumulation was quantified by RIA. The antagonistic potential of each compound was calculated. […]

TSHR [3] = biological target: T1, TSHR; test: Primary screening, Enzyme Fragment Complementation (EFC) cAMP assay in CHO-K1-TSHR cells; details: 50 μM; after hit validation and exclusion of false positives
Procedure: Primary screening was performed using an Enzyme Fragment Complementation (EFC) technology. CHO-K1-TSHR cells (15000/well in a 384 well plate) were treated with 50 μM of each of the 16544 compounds of the ChemBioNet compound library of the Leibniz-Institut fuer Molekulare Pharmakologie (FMP), Berlin, Germany. EFC technology uses two fragments of one enzyme: an enzyme acceptor (EA) and an enzyme donor (ED). ED is labeled to (synthetic) cAMP. […] In this assay, free cAMP from cell lysates and ED-labeled cAMP compete for antibody binding sites. Unbound ED-cAMP is free to complement EA to form active enzyme, which subsequently produces a luminescent signal. Thus the luminescence signal increases with rising level of intracellular cAMP. All assay components were used after the manufacturer's protocol.
Hits were validated by dose-response curves using the EFC assay.
False-positive hits could be excluded by stimulating CHO-K1 cells without TSHR with Forskolin (23.4 μM) followed by addition of the compound of interest. Forskolin activates the Adenylyl-cyclase directly. Inhibition of this effect excludes the interaction between TSHR and compound.
For the implementation of the primary screen the Enzymes Fragment Complementation Technology (EFC) was selected.

LHCGR = biological target: T5, LHCGR (Homo sapiens, UniProt P22888); test: Selectivity test: cAMP RIA in HEK-293 cells stably expressing LHCGR; details: 50 μM together with the respective agonist
T5 construct: expressed in transfected cells
T5 sequence (P22888 27-699, species assumed): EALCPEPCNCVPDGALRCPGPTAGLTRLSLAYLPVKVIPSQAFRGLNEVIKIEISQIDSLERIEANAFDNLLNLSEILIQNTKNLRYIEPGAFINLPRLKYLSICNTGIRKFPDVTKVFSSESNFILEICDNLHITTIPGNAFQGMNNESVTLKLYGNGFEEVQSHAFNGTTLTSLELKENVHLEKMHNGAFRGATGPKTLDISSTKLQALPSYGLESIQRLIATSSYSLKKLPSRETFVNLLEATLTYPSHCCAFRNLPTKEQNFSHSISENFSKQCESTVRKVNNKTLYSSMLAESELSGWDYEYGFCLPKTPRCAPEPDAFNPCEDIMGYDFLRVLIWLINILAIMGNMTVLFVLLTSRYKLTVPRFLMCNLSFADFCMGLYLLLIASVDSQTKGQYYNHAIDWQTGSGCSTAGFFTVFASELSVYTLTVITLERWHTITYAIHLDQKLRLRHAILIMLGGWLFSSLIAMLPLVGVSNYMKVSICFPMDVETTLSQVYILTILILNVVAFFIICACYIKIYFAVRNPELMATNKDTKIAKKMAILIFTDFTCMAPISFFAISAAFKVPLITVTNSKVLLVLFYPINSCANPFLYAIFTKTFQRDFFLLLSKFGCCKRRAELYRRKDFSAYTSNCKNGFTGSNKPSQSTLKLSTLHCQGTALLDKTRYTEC
Procedure: as §1, §2

O=C1[C@@H]2[C@H]3C[C@H]([C@@H]4Sc5[nH]c(=O)sc5[C@@H](c5ccccc5)[C@H]34)[C@@H]2C(=O)N1c1ccccc1 (racemic) [Compound S37, (4aS,5S,5aR,8aR,9R,9aS,10R)-7,10-diphenyl-3,4a,5,5a,8a,9,9a,10-octahydro-5,9-methanothiazolo[5′,4′:5,6]thiopyrano[2,3-f]isoindole-2,6,8(7H)-trione]
Antagonistic effect (cAMP inhibition) on TSHR (TSHR [1]): inhibits TSHR comparable to the reference compound 2-7(NIH)
Mode of antagonism vs. TSH (Schild analysis) (TSHR [1]): competitive antagonism
TSHR selectivity versus homologous receptors LHCGR and FSHR (TSHR [1]; from cAMP inhibition at TSHR, FSHR, LHCGR at 50 μM): highly TSHR-selective
antagonistic activity (% inhibition) (TSHR [1]): 70%
IC50 (TSHR [1]): 28 µM
Toxicity (cell vitality, alamar blue) [2]: not toxic
Mode of antagonism vs. C2 (wt TSHR): non-competitive antagonism
Mode of antagonism vs. C2 at truncated construct (Δ1-408-TSHR): non-competitive antagonism

Cc1ccc(N2C(=O)C3C4CC(C3C2=O)C2C(c3ccccc3)c3sc(=O)[nH]c3SC42)cc1 (stereo not drawn) [Compound S4]
Antagonistic effect (cAMP inhibition) on TSHR (TSHR [1]): inhibits TSHR and FSHR activation
antagonistic activity (% inhibition) (TSHR [1]): 63%
IC50 (TSHR [1]): 48.9 µM and 49 µM
Antagonistic effect (cAMP inhibition) on FSHR (FSHR): inhibits TSHR and FSHR activation
Primary screen hit: cAMP production induced by thyrotropin (TSHR [3]): potentially abolishing cAMP production

O=C1C2C3C=CC(C3)C2C(=O)N1c1ccc(N2CCN(c3cccc(C(F)(F)F)c3)CC2)c([N+](=O)[O-])c1 (stereo not drawn) [Compound S9]
Antagonistic effect (cAMP inhibition) on TSHR (TSHR [1]): unspecifically inhibits all three receptors
Mode of antagonism vs. TSH (Schild analysis) (TSHR [1]): non-competitive antagonism
antagonistic activity (% inhibition) (TSHR [1]): 75%
IC50 (TSHR [1]): 18.7 µM and 18.6 µM
Antagonistic effect (cAMP inhibition) on LHCGR (LHCGR): unspecifically inhibits all three receptors
Antagonistic effect (cAMP inhibition) on FSHR (FSHR): unspecifically inhibits all three receptors
Mode of antagonism vs. C2 (wt TSHR): non-competitive antagonism
Primary screen hit: cAMP production induced by thyrotropin (TSHR [3]): potentially abolishing cAMP production
